Laboratory results published in patent US7498127B2, “Method of screening cell growth inhibitor and cell growth inhibitor” (priority 2002, dated 2009).

Test system: nuclear export of the PLZF protein
Assay: Inhibitory effect against the nuclear export of the PLZF protein by processing (CFP-PLZF in nucleus, TPA treatment)
Format: cell-based, Human
Settings: HT1080/HB-EGF transfected with CFP-PLZF; 100 nM TPA 60 min in copresence of LMB 10 ng/ml; FIG. 7
Protocol: Each transfectant containing CFP-PLZF was cultured for 24 hours, and then 100 nM TPA was added thereto for treatment for 60 min. The number (N) of the cells expressing CFP-PLZF in the nucleus and the number (C) of the cells in which CFP-PLZF has leaked into the cytoplasm are counted under observation with a fluorescent microscope before and after the TPA treatment, and the ratio of the number (N) of the cells expressing CFP-PLZF in the nucleus to the total number (N+C) of the cells expressing CFP-PLZF is calculated and thus obtained (N/(N+C)×100 (%)). The wild-type HT1080 cells (the above described 1)) were used as the control for comparison.
HT1080/HB-EGF to which CFP-PLZF had been transfected (see Test Example 3) was cultured for 24 hours, and then treated with 100 nM TPA in the copresence of LMB (10 ng/ml) for 60 min. The number of the cells expressing CFP-PLZF in the nucleus was measured with a microscope before and after the TPA treatment and the ratio was calculated.
As the control, the ratio of the number of the cells expressing CFP-PLZF before and after the TPA treatment when the TPA treatment was performed without adding LMB was obtained, and compared with the ratio when LMB was added. Thus, the compound LMB to be tested was evaluated. • 3. Test Results

## CCC(=C/[C@H](C)C/C=C/C(C)=C/[C@@H](C)C(=O)[C@@H](C)[C@H](O)[C@@H](C)C/C(C)=C/C(=O)O)/C=C/[C@@H]1OC(=O)C=C[C@@H]1C [LMB, reptomycin B]
  inhibition of the nuclear export of the PLZF protein (ratio of cells expressing CFP-PLZF in the nucleus before and after TPA treatment): inhibited the nuclear export of the PLZF protein
